From ChEMBL document CHEMBL1201862, “PubChem BioAssay data set” (2004)
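These data come from cells grown in 96-well plates and exposed to compound for 48 hours at five concentrations. At the GI50, growth is halved.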 Activity calls are given as the source filed them. Rule as the data show it: active = GI50 up to about 1.1 µM and inactive = higher.

Key:
Assay in all cases: NCI anticancer screen, dose series, 48 h
786-0 = test system: 786-0
A498 = test system: A498
A549 = test system: A549
ACHN = test system: ACHN
BT-549 = test system: BT-549
CCRF-CEM = test system: CCRF-CEM
COLO 205 = test system: COLO 205
DU-145 = test system: DU-145
EKVX = test system: EKVX
HCC 2998 = test system: HCC 2998
HCT-116 = test system: HCT-116
HL-60 = test system: HL-60
HOP-62 = test system: HOP-62
HOP-92 = test system: HOP-92
HT-29 = test system: HT-29
Hs-578T = test system: Hs-578T
IGROV-1 = test system: IGROV-1
K562 = test system: K562
KM12 = test system: KM12
LOX IMVI = test system: LOX IMVI
M14 = test system: M14
MCF7 = test system: MCF7
MDA-MB-231 = test system: MDA-MB-231
MDA-MB-435 = test system: MDA-MB-435
MDA-N = test system: MDA-N
MOLT-4 = test system: MOLT-4
Malme-3M = test system: Malme-3M
NCI-H226 = test system: NCI-H226
NCI-H23 = test system: NCI-H23
NCI-H460 = test system: NCI-H460
NCI-H522 = test system: NCI-H522
OVCAR-3 = test system: OVCAR-3
OVCAR-4 = test system: OVCAR-4
OVCAR-5 = test system: OVCAR-5
OVCAR-8 = test system: OVCAR-8
PC-3 = test system: PC-3
RPMI-8226 = test system: RPMI-8226
RXF 393 = test system: RXF 393
SF-268 = test system: SF-268
SF-295 = test system: SF-295
SF-539 = test system: SF-539
SK-MEL-28 = test system: SK-MEL-28
SK-MEL-5 = test system: SK-MEL-5
SK-OV-3 = test system: SK-OV-3
SN12C = test system: SN12C
SNB-19 = test system: SNB-19
SNB-75 = test system: SNB-75
SR = test system: SR
SW-620 = test system: SW-620
T47D = test system: T47D
TK-10 = test system: TK-10
U-251 = test system: U-251
UACC-257 = test system: UACC-257
UACC-62 = test system: UACC-62
UO-31 = test system: UO-31
CAKI-1 = test system: CAKI-1
HCT-15 = test system: HCT-15
NCI/ADR-RES = test system: NCI/ADR-RES
SK-MEL-2 = test system: SK-MEL-2

SMILES: Cc1nc2ccccc2c(=O)n1NC(=O)c1ccc([N+](=O)[O-])cc1
- GI50 (786-0): > 100 µM (inactive)
- GI50 (A498): 56.4 µM (inactive)
- GI50 (A549): > 100 µM (inactive)
- GI50 (ACHN): > 100 µM (inactive)
- GI50 (BT-549): > 100 µM (inactive)
- GI50 (CCRF-CEM): > 100 µM (inactive)
- GI50 (COLO 205): > 100 µM (inactive)
- GI50 (DU-145): > 100 µM (inactive)
- GI50 (EKVX): > 100 µM (inactive)
- GI50 (HCC 2998): > 100 µM (inactive)
- GI50 (HCT-116): > 100 µM (inactive)
- GI50 (HL-60): > 100 µM (inactive)
- GI50 (HOP-62): > 100 µM (inactive)
- GI50 (HOP-92): > 100 µM (inactive)
- GI50 (HT-29): > 100 µM (inactive)
- GI50 (Hs-578T): > 100 µM (inactive)
- GI50 (IGROV-1): > 100 µM (inactive)
- GI50 (K562): > 100 µM (inactive)
- GI50 (KM12): > 100 µM (inactive)
- GI50 (LOX IMVI): > 100 µM (inactive)
- GI50 (M14): > 100 µM (inactive)
- GI50 (MCF7): > 100 µM (inactive)
- GI50 (MDA-MB-231): > 100 µM (inactive)
- GI50 (MDA-MB-435): > 100 µM (inactive)
- GI50 (MDA-N): > 100 µM (inactive)
- GI50 (MOLT-4): > 100 µM (inactive)
- GI50 (Malme-3M): > 100 µM (inactive)
- GI50 (NCI-H226): > 100 µM (inactive)
- GI50 (NCI-H23): > 100 µM (inactive)
- GI50 (NCI-H460): > 100 µM (inactive)
- GI50 (NCI-H522): > 100 µM (inactive)
- GI50 (OVCAR-3): > 100 µM (inactive)
- GI50 (OVCAR-4): > 100 µM (inactive)
- GI50 (OVCAR-5): > 100 µM (inactive)
- GI50 (OVCAR-8): > 100 µM (inactive)
- GI50 (PC-3): > 100 µM (inactive)
- GI50 (RPMI-8226): > 100 µM (inactive)
- GI50 (RXF 393): > 100 µM (inactive)
- GI50 (SF-268): > 100 µM (inactive)
- GI50 (SF-295): > 100 µM (inactive)
- GI50 (SF-539): > 100 µM (inactive)
- GI50 (SK-MEL-28): > 100 µM (inactive)
- GI50 (SK-MEL-5): > 100 µM (inactive)
- GI50 (SK-OV-3): > 100 µM (inactive)
- GI50 (SN12C): > 100 µM (inactive)
- GI50 (SNB-19): > 100 µM (inactive)
- GI50 (SNB-75): > 100 µM (inactive)
- GI50 (SR): > 100 µM (inactive)
- GI50 (SW-620): > 100 µM (inactive)
- GI50 (T47D): > 100 µM (inactive)
- GI50 (TK-10): > 100 µM (inactive)
- GI50 (U-251): > 100 µM (inactive)
- GI50 (UACC-257): > 100 µM (inactive)
- GI50 (UACC-62): > 100 µM (inactive)
- GI50 (UO-31): > 100 µM (inactive)

SMILES: CC(=N/NC(=S)N1CCCCCC1)/C(C)=N\NC(=S)N1CCCCCC1
- GI50 (786-0): 4.54 µM (inactive)
- GI50 (A498): 1.78 µM (inactive)
- GI50 (A549): 5.3 µM (inactive)
- GI50 (ACHN): 3.38 µM (inactive)
- GI50 (BT-549): 5.27 µM (inactive)
- GI50 (CAKI-1): 4.91 µM (inactive)
- GI50 (COLO 205): 5.43 µM (inactive)
- GI50 (DU-145): 3.21 µM (inactive)
- GI50 (EKVX): 3.85 µM (inactive)
- GI50 (HCC 2998): 3.12 µM (inactive)
- GI50 (HCT-116): 5.08 µM (inactive)
- GI50 (HCT-15): 4.34 µM
- GI50 (HOP-62): 4.98 µM (inactive)
- GI50 (HOP-92): 1.32 µM (inactive)
- GI50 (HT-29): 2.63 µM (inactive)
- GI50 (Hs-578T): 3.87 µM (inactive)
- GI50 (IGROV-1): 3.84 µM (inactive)
- GI50 (K562): 13.2 µM (inactive)
- GI50 (KM12): 4.59 µM (inactive)
- GI50 (LOX IMVI): > 10 µM (inactive)
- GI50 (M14): 5.25 µM (inactive)
- GI50 (MCF7): 4.7 µM (inactive)
- GI50 (MDA-MB-231): 7.98 µM (inactive)
- GI50 (MDA-MB-435): 1.83 µM (inactive)
- GI50 (MDA-N): 6.55 µM (inactive)
- GI50 (MOLT-4): > 100 µM (inactive)
- GI50 (Malme-3M): 5.5 µM (inactive)
- GI50 (NCI-H226): 3.42 µM (inactive)
- GI50 (NCI-H23): 4.83 µM (inactive)
- GI50 (NCI-H460): 4.38 µM (inactive)
- GI50 (NCI-H522): 4.14 µM (inactive)
- GI50 (NCI/ADR-RES): 5.25 µM (inactive)
- GI50 (OVCAR-3): 5.6 µM (inactive)
- GI50 (OVCAR-4): 1.79 µM (inactive)
- GI50 (OVCAR-5): 7.89 µM (inactive)
- GI50 (OVCAR-8): 15.7 µM (inactive)
- GI50 (PC-3): 5.86 µM (inactive)
- GI50 (RPMI-8226): 5.66 µM (inactive)
- GI50 (RXF 393): 3.77 µM (inactive)
- GI50 (SF-268): 3.45 µM (inactive)
- GI50 (SF-295): 4.93 µM (inactive)
- GI50 (SF-539): 20.7 µM (inactive)
- GI50 (SK-MEL-28): 1.88 µM (inactive)
- GI50 (SK-MEL-2): 1.97 µM (inactive)
- GI50 (SK-MEL-5): 4.86 µM (inactive)
- GI50 (SK-OV-3): 3.88 µM (inactive)
- GI50 (SN12C): 1.91 µM (inactive)
- GI50 (SNB-19): 6.18 µM (inactive)
- GI50 (SNB-75): 5.09 µM (inactive)
- GI50 (SW-620): 2.37 µM (inactive)
- GI50 (T47D): 1.75 µM (inactive)
- GI50 (TK-10): 4.34 µM (inactive)
- GI50 (U-251): 2.43 µM (inactive)
- GI50 (UACC-257): 5.2 µM (inactive)
- GI50 (UACC-62): 4.29 µM (inactive)
- GI50 (UO-31): 3.75 µM (inactive)
